Assay results from patent US10253002B2, “Compounds and methods of treating infections” (Neoculi Pty Ltd., priority 2013, dated 2019).
≈ marks a conversion by molar mass, not a printed value.

tested on: Escherichia coli; assay: Broth microdilution MIC, Example 7 (NCL812 and analogues); type: cell-based; conditions: Escherichia coli, read-out: MIC (μg/ml) at 24 hours E. coli; E. coli, 24 hours

| Compound | MIC [µg/mL] |
| --- | --- |
| Nc1nc(N/N=C/c2ccc(Br)cc2)cc(N/N=C/c2ccc(Br)cc2)n1 [NCL193] | > 128 |

same assay, conditions: Escherichia coli, read-out: MIC (μg/ml) at 24 hours; E. coli; 24 hours; duplicate lines per compound

| Compound | MIC [µg/mL] |
| --- | --- |
| Cl.N=C(N/N=C/c1ccc(Cl)cc1)N/N=C/c1ccc(C(F)(F)F)cc1F [NCL078] | > 128 |
| Cl.N=C(N/N=C/c1ccc(F)cc1)N/N=C/c1ccc(Cl)cc1 [NCL079] | > 128 |
| C/C(=N\NC(=N)N/N=C/c1ccc(Cl)cc1)c1ccc(C(F)(F)F)cc1.Cl [NCL080] | > 128 |
| Cl.N=C(N/N=C/c1ccc(Cl)cc1)N/N=C/c1ccc(Cl)cc1F [NCL084] | > 128 |
| C/C(=N\NC(=N)N/N=C(\C)c1ccc(C(F)(F)F)cc1)c1ccc(Cl)cc1.Cl [NCL089] | > 128 |

tested on: MRSA; assay: as above; type: cell-based, Staphylococcus aureus; conditions: MIC testing, two MRSA strains
Method in brief: (§1)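 Turbidity read visually and then at 600 nm defined the MIC (μg/ml), comparing drug-containing wells with a growth-control well lacking antimicrobial. Testing followed the CLSI broth microdilution method, in duplicate, using two strains per organism group.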

| Compound | activity against MRSA among analogues |
| --- | --- |
| Cl.N=C(N/N=C/c1ccc(Cl)cc1)N/N=C/c1ccc(C(F)(F)F)cc1F [NCL078] | greatest activity |
| Cl.N=C(N/N=C/c1ccc(F)cc1)N/N=C/c1ccc(Cl)cc1 [NCL079] | greatest activity |
| C/C(=N\NC(=N)N/N=C/c1ccc(Cl)cc1)c1ccc(C(F)(F)F)cc1.Cl [NCL080] | greatest activity |
| Cl.N=C(N/N=C/c1ccc(Cl)cc1)N/N=C/c1ccc(Cl)cc1F [NCL084] | greatest activity |
| C/C(=N\NC(=N)N/N=C(\C)c1ccc(C(F)(F)F)cc1)c1ccc(Cl)cc1.Cl [NCL089] | greatest activity |
| Nc1nc(N/N=C/c2ccc(Br)cc2)cc(N/N=C/c2ccc(Br)cc2)n1 [NCL193] | greatest activity |

same assay, conditions: MRSA 1; 24 hours; duplicate lines per compound

| Compound | MIC (μg/ml) at 24 hours, MRSA 1 [µg/mL] |
| --- | --- |
| C/C(=N\NC(=N)N/N=C(\C)c1ccc(C(F)(F)F)cc1)c1ccc(Cl)cc1.Cl [NCL089] | 8 |

same assay, conditions: MRSA 2, 24 hours

| Compound | MIC (μg/ml) at 24 hours, MRSA 2 [µg/mL] |
| --- | --- |
| Nc1nc(N/N=C/c2ccc(Br)cc2)cc(N/N=C/c2ccc(Br)cc2)n1 [NCL193] | 4 (≈ 8.18 µM) |

same assay, conditions: MRSA 2; 24 hours; duplicate lines per compound

| Compound | MIC (μg/ml) at 24 hours, MRSA 2 [µg/mL] |
| --- | --- |
| Cl.N=C(N/N=C/c1ccc(Cl)cc1)N/N=C/c1ccc(C(F)(F)F)cc1F [NCL078] | 8 |
| Cl.N=C(N/N=C/c1ccc(F)cc1)N/N=C/c1ccc(Cl)cc1 [NCL079] | 8 |
| C/C(=N\NC(=N)N/N=C/c1ccc(Cl)cc1)c1ccc(C(F)(F)F)cc1.Cl [NCL080] | 8 |
| Cl.N=C(N/N=C/c1ccc(Cl)cc1)N/N=C/c1ccc(Cl)cc1F [NCL084] | 4 |

same assay, conditions: Staphylococcus aureus, MRSA, 24 h, read-out: MIC (μg/ml) at 24 hours MRSA 1, MRSA 1, 24 hours

| Compound | MIC [µg/mL] |
| --- | --- |
| Nc1nc(N/N=C/c2ccc(Br)cc2)cc(N/N=C/c2ccc(Br)cc2)n1 [NCL193] | 2 (≈ 4.09 µM) |

same assay, conditions: Staphylococcus aureus, MRSA, 24 h, read-out: MIC (μg/ml) at 24 hours MRSA 2, MRSA 2, 24 hours

| Compound | MIC [µg/mL] |
| --- | --- |
| Nc1nc(N/N=C/c2ccc(Br)cc2)cc(N/N=C/c2ccc(Br)cc2)n1 [NCL193] | 2 (≈ 4.09 µM) |

same assay, conditions: Staphylococcus aureus, MRSA, 24 h, read-out: MIC (μg/ml) at 24 hours, MRSA 1, MRSA 1; 24 hours; duplicate lines per compound

| Compound | MIC [µg/mL] |
| --- | --- |
| Cl.N=C(N/N=C/c1ccc(Cl)cc1)N/N=C/c1ccc(C(F)(F)F)cc1F [NCL078] | 4 |
| Cl.N=C(N/N=C/c1ccc(F)cc1)N/N=C/c1ccc(Cl)cc1 [NCL079] | 4 |
| C/C(=N\NC(=N)N/N=C/c1ccc(Cl)cc1)c1ccc(C(F)(F)F)cc1.Cl [NCL080] | 4 |
| Cl.N=C(N/N=C/c1ccc(Cl)cc1)N/N=C/c1ccc(Cl)cc1F [NCL084] | 2 |
| C/C(=N\NC(=N)N/N=C(\C)c1ccc(C(F)(F)F)cc1)c1ccc(Cl)cc1.Cl [NCL089] | 4 |

same assay, conditions: Staphylococcus aureus, MRSA, 24 h, read-out: MIC (μg/ml) at 24 hours, MRSA 2, MRSA 2; 24 hours; duplicate lines per compound

| Compound | MIC [µg/mL] |
| --- | --- |
| Cl.N=C(N/N=C/c1ccc(Cl)cc1)N/N=C/c1ccc(C(F)(F)F)cc1F [NCL078] | 16 |
| Cl.N=C(N/N=C/c1ccc(F)cc1)N/N=C/c1ccc(Cl)cc1 [NCL079] | 4 |
| C/C(=N\NC(=N)N/N=C/c1ccc(Cl)cc1)c1ccc(C(F)(F)F)cc1.Cl [NCL080] | 4 |
| Cl.N=C(N/N=C/c1ccc(Cl)cc1)N/N=C/c1ccc(Cl)cc1F [NCL084] | 8 |
| C/C(=N\NC(=N)N/N=C(\C)c1ccc(C(F)(F)F)cc1)c1ccc(Cl)cc1.Cl [NCL089] | 4 |

same assay, conditions: Staphylococcus aureus, MRSA, bioassay ranking, MRSA; read-out: MRSA

| Compound | MIC [µg/mL] |
| --- | --- |
| Cl.N=C(N/N=C/c1ccc(Cl)cc1)N/N=C/c1ccc(C(F)(F)F)cc1F [NCL078] | 8 |
| Cl.N=C(N/N=C/c1ccc(F)cc1)N/N=C/c1ccc(Cl)cc1 [NCL079] | 5 |
| C/C(=N\NC(=N)N/N=C/c1ccc(Cl)cc1)c1ccc(C(F)(F)F)cc1.Cl [NCL080] | 5 |
| Cl.N=C(N/N=C/c1ccc(Cl)cc1)N/N=C/c1ccc(Cl)cc1F [NCL084] | 4 |
| C/C(=N\NC(=N)N/N=C(\C)c1ccc(C(F)(F)F)cc1)c1ccc(Cl)cc1.Cl [NCL089] | 5 |
| Nc1nc(N/N=C/c2ccc(Br)cc2)cc(N/N=C/c2ccc(Br)cc2)n1 [NCL193] | 2.5 (≈ 5.11 µM) |

tested on: VRE; assay: as above; type: cell-based, Enterococcus spp.; conditions: Enterococcus, VRE, 24 h, read-out: MIC (μg/ml) at 24 hours VRE 1, VRE 1, 24 hours
Method in brief: as §1

| Compound | MIC [µg/mL] |
| --- | --- |
| Nc1nc(N/N=C/c2ccc(Br)cc2)cc(N/N=C/c2ccc(Br)cc2)n1 [NCL193] | 4 (≈ 8.18 µM) |

same assay, conditions: Enterococcus, VRE, 24 h, read-out: MIC (μg/ml) at 24 hours VRE 2, VRE 2, 24 hours

| Compound | MIC [µg/mL] |
| --- | --- |
| Nc1nc(N/N=C/c2ccc(Br)cc2)cc(N/N=C/c2ccc(Br)cc2)n1 [NCL193] | 4 (≈ 8.18 µM) |

same assay, conditions: Enterococcus, VRE, 24 h, read-out: MIC (μg/ml) at 24 hours, VRE 1, VRE 1; 24 hours; duplicate lines per compound

| Compound | MIC [µg/mL] |
| --- | --- |
| Cl.N=C(N/N=C/c1ccc(Cl)cc1)N/N=C/c1ccc(C(F)(F)F)cc1F [NCL078] | 4 |
| Cl.N=C(N/N=C/c1ccc(F)cc1)N/N=C/c1ccc(Cl)cc1 [NCL079] | 2 |
| C/C(=N\NC(=N)N/N=C/c1ccc(Cl)cc1)c1ccc(C(F)(F)F)cc1.Cl [NCL080] | 2 |
| Cl.N=C(N/N=C/c1ccc(Cl)cc1)N/N=C/c1ccc(Cl)cc1F [NCL084] | 2 |
| C/C(=N\NC(=N)N/N=C(\C)c1ccc(C(F)(F)F)cc1)c1ccc(Cl)cc1.Cl [NCL089] | 0.5 |

same assay, conditions: Enterococcus, VRE, 24 h, read-out: MIC (μg/ml) at 24 hours, VRE 2, VRE 2; 24 hours; duplicate lines per compound

| Compound | MIC [µg/mL] |
| --- | --- |
| Cl.N=C(N/N=C/c1ccc(Cl)cc1)N/N=C/c1ccc(C(F)(F)F)cc1F [NCL078] | 4 |
| Cl.N=C(N/N=C/c1ccc(F)cc1)N/N=C/c1ccc(Cl)cc1 [NCL079] | 4 |
| C/C(=N\NC(=N)N/N=C/c1ccc(Cl)cc1)c1ccc(C(F)(F)F)cc1.Cl [NCL080] | 4 |
| Cl.N=C(N/N=C/c1ccc(Cl)cc1)N/N=C/c1ccc(Cl)cc1F [NCL084] | 2 |
| C/C(=N\NC(=N)N/N=C(\C)c1ccc(C(F)(F)F)cc1)c1ccc(Cl)cc1.Cl [NCL089] | 1 |

same assay, conditions: Enterococcus, VRE, bioassay ranking, VRE; read-out: VRE

| Compound | MIC [µg/mL] |
| --- | --- |
| Cl.N=C(N/N=C/c1ccc(Cl)cc1)N/N=C/c1ccc(C(F)(F)F)cc1F [NCL078] | 3 |
| Cl.N=C(N/N=C/c1ccc(F)cc1)N/N=C/c1ccc(Cl)cc1 [NCL079] | 3 |
| C/C(=N\NC(=N)N/N=C/c1ccc(Cl)cc1)c1ccc(C(F)(F)F)cc1.Cl [NCL080] | 3 |
| Cl.N=C(N/N=C/c1ccc(Cl)cc1)N/N=C/c1ccc(Cl)cc1F [NCL084] | 2 |
| C/C(=N\NC(=N)N/N=C(\C)c1ccc(C(F)(F)F)cc1)c1ccc(Cl)cc1.Cl [NCL089] | 0.75 |
| Nc1nc(N/N=C/c2ccc(Br)cc2)cc(N/N=C/c2ccc(Br)cc2)n1 [NCL193] | 5 (≈ 10.2 µM) |

same assay, conditions: MIC testing, two VRE strains

| Compound | activity against VRE among analogues |
| --- | --- |
| Cl.N=C(N/N=C/c1ccc(Cl)cc1)N/N=C/c1ccc(C(F)(F)F)cc1F [NCL078] | greatest activity |
| Cl.N=C(N/N=C/c1ccc(F)cc1)N/N=C/c1ccc(Cl)cc1 [NCL079] | greatest activity |
| C/C(=N\NC(=N)N/N=C/c1ccc(Cl)cc1)c1ccc(C(F)(F)F)cc1.Cl [NCL080] | greatest activity |
| Cl.N=C(N/N=C/c1ccc(Cl)cc1)N/N=C/c1ccc(Cl)cc1F [NCL084] | greatest activity |
| Nc1nc(N/N=C/c2ccc(Br)cc2)cc(N/N=C/c2ccc(Br)cc2)n1 [NCL193] | greatest activity |

same assay, conditions: VRE 1; 24 hours; duplicate lines per compound

| Compound | MIC (μg/ml) at 24 hours, VRE 1 [µg/mL] |
| --- | --- |
| Cl.N=C(N/N=C/c1ccc(Cl)cc1)N/N=C/c1ccc(C(F)(F)F)cc1F [NCL078] | 2 |

same assay, conditions: VRE 2, 24 hours

| Compound | MIC (μg/ml) at 24 hours, VRE 2 [µg/mL] |
| --- | --- |
| Nc1nc(N/N=C/c2ccc(Br)cc2)cc(N/N=C/c2ccc(Br)cc2)n1 [NCL193] | 8 (≈ 16.4 µM) |

same assay, conditions: VRE 2; 24 hours; duplicate lines per compound

| Compound | MIC (μg/ml) at 24 hours, VRE 2 [µg/mL] |
| --- | --- |
| Cl.N=C(N/N=C/c1ccc(Cl)cc1)N/N=C/c1ccc(C(F)(F)F)cc1F [NCL078] | 2 |
| C/C(=N\NC(=N)N/N=C(\C)c1ccc(C(F)(F)F)cc1)c1ccc(Cl)cc1.Cl [NCL089] | 1 |

tested on: not listed separately; assay: Bioassay ranking of the analogues tested; conditions: M + R (MRSA and VRE combined)

| Compound | M + R [µg/mL] |
| --- | --- |
| Cl.N=C(N/N=C/c1ccc(Cl)cc1)N/N=C/c1ccc(C(F)(F)F)cc1F [NCL078] | 5.5 |
| Cl.N=C(N/N=C/c1ccc(F)cc1)N/N=C/c1ccc(Cl)cc1 [NCL079] | 4 |
| C/C(=N\NC(=N)N/N=C/c1ccc(Cl)cc1)c1ccc(C(F)(F)F)cc1.Cl [NCL080] | 4 |
| Cl.N=C(N/N=C/c1ccc(Cl)cc1)N/N=C/c1ccc(Cl)cc1F [NCL084] | 3 |
| C/C(=N\NC(=N)N/N=C(\C)c1ccc(C(F)(F)F)cc1)c1ccc(Cl)cc1.Cl [NCL089] | 2.875 |
| Nc1nc(N/N=C/c2ccc(Br)cc2)cc(N/N=C/c2ccc(Br)cc2)n1 [NCL193] | 3.75 |

tested on: Pseudomonas aeruginosa; assay: Broth microdilution MIC, Example 7 (NCL812 and analogues); type: cell-based; conditions: Pseudomonas aeruginosa, 24 h, read-out: MIC (μg/ml) at 24 hours P. aeruginosa, P. aeruginosa, 24 hours

| Compound | MIC [µg/mL] |
| --- | --- |
| Nc1nc(N/N=C/c2ccc(Br)cc2)cc(N/N=C/c2ccc(Br)cc2)n1 [NCL193] | > 128 |

same assay, conditions: Pseudomonas aeruginosa, 24 h, read-out: MIC (μg/ml) at 24 hours, P. aeruginosa; 24 hours; duplicate lines per compound

| Compound | MIC [µg/mL] |
| --- | --- |
| Cl.N=C(N/N=C/c1ccc(Cl)cc1)N/N=C/c1ccc(C(F)(F)F)cc1F [NCL078] | > 128 |
| Cl.N=C(N/N=C/c1ccc(F)cc1)N/N=C/c1ccc(Cl)cc1 [NCL079] | > 128 |
| C/C(=N\NC(=N)N/N=C/c1ccc(Cl)cc1)c1ccc(C(F)(F)F)cc1.Cl [NCL080] | > 128 |
| Cl.N=C(N/N=C/c1ccc(Cl)cc1)N/N=C/c1ccc(Cl)cc1F [NCL084] | > 128 |
| C/C(=N\NC(=N)N/N=C(\C)c1ccc(C(F)(F)F)cc1)c1ccc(Cl)cc1.Cl [NCL089] | > 128 |
